The text below walks through data of US8772307B2, “Substituted spiro compounds and their use for producing pain-relief medicaments” (Gruenenthal GmbH, priority 2005, dated 2014).

Experiment [1] addresses T1, vanilloid receptor (VR1) (Homo sapiens, UniProt Q8NER1).
T1 construct: expressed in transfected cells; host or cells: CHO K1 cells (ECACC), stably transfected
The experiment is described as follows: Functional testing on vanilloid receptor (VR1): FLIPR Ca2+ inflow assay in CHO K1 cells stably transfected with the VR1 gene. It is filed as cell-based. The note with it: for inhibition at 10 µM: CHO-K1, inhibition compared to 10 μM CP (capsaicin); for activation at 10 µM: CHO-K1, stimulation compared to 10 μM CP (capsaicin). Summed up: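 CHO K1 cells stably expressing VR1, loaded with Fluo-4 (2 μM, 30 min, 37° C); peak Ca²⁺ fluorescence read on FLIPR. Compound (10 μM) added first, agonism as % of 10 μM capsaicin signal; after 5 min, 100 nM capsaicin added, % inhibition calculated relative to maximal inhibition with 10 μM capsaicin.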

The target in experiment [2] is T2, rat-species vanilloid receptor 1 (VR1/TRPV1) (Rattus norvegicus, UniProt O35433).
T2 construct: endogenous in cells; host or cells: primary cells dissociated from rat dorsal root ganglia (DRG)
The experiment is described as follows: Functional testing on vanilloid receptor 1 (VR1/TRPV1): FLIPR Ca2+ inflow assay in rat dorsal root ganglia cells (% activation / % inhibition vs capsaicin). In kind it is cell-based. The note with it: for inhibition at 10 µM: inhibition compared to 10 μM CP (capsaicin); for activation at 10 µM: stimulation compared to 10 μM CP (capsaicin). Summed up:
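Rat dorsal root ganglion cells, dissociated with collagenase and trypsin, were plated at 3×10^5/mL on laminin-coated plates in NGF-containing HAMS F12 and cultured 2-3 days at 37° C. Ca2+ inflow read by Fluo-4 fluorescence on FLIPR; test compounds at 10 μM referenced to 10 μM capsaicin.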

T2 sequence (O35433 whole entry): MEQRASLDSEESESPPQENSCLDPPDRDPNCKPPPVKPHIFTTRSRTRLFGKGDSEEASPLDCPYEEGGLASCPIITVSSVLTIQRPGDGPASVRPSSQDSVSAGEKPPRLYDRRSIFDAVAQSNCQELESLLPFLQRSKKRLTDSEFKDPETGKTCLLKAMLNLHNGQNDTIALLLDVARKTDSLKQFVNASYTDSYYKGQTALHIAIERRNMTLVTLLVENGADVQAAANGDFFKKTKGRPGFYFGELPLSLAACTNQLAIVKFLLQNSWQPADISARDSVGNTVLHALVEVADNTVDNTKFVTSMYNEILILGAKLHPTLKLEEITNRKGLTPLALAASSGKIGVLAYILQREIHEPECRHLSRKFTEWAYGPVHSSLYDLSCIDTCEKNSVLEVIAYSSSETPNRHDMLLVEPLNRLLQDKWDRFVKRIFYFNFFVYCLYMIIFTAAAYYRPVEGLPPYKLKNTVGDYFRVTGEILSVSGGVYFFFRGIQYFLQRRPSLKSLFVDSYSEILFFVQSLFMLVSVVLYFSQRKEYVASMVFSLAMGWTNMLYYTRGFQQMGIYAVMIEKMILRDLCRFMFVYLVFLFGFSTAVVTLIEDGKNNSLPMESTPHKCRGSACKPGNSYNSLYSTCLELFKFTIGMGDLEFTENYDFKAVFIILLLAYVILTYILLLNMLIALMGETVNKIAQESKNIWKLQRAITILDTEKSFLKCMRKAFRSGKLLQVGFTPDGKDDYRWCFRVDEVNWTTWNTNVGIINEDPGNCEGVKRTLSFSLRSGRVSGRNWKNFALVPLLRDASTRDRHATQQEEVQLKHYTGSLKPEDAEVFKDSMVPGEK
T1 sequence (Q8NER1 whole entry): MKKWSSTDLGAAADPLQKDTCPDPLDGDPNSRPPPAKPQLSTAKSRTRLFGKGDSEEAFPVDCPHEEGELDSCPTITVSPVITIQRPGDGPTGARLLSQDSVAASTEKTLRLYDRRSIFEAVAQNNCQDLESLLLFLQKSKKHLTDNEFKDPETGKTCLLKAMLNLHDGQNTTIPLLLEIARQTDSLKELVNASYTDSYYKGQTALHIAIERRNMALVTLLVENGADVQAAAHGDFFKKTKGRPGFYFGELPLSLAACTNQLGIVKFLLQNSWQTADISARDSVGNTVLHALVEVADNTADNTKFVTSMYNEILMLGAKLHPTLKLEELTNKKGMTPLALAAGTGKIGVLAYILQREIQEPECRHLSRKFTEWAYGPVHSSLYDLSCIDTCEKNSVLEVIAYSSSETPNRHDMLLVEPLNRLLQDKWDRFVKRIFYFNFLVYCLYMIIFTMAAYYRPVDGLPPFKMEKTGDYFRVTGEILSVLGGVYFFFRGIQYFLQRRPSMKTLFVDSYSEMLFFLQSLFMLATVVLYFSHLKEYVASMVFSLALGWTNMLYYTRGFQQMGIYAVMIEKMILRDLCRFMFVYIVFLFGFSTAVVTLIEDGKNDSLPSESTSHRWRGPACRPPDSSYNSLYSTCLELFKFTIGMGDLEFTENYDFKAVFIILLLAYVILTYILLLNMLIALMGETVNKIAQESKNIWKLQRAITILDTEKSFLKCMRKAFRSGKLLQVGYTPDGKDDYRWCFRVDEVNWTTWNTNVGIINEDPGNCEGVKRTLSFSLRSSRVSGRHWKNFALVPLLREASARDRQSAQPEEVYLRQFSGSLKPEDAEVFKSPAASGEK

By inhibition is commonly meant the relative decrease from the control value, in per cent. `COc1cccc(C2=NOC3(CCN(C(=O)Nc4ccc(C(C)(C)C)cc4)CC3)C2)c1` [Compound 140, 3-(3-methoxyphenyl)-1-oxa-2,8-diazaspiro[4.5]dec-2-ene-8-carboxylic acid-(4-tert-butylphenyl)amide]: in experiment [1], the inhibition at 10 µM turned out to be 9.67% and the activation at 10 µM was 9.37%. Also, in experiment [2], the inhibition at 10 µM was 99.2% and the activation at 10 µM was 1.4%.
As for `O=C(Nc1ccc(C(F)(F)F)cc1)N1CCC2(CC1)CC(c1ccccc1)=NO2` [Compound 211, 3-phenyl-1-oxa-2,8-diazaspiro[4.5]dec-2-ene-8-carboxylic acid-(4-trifluoromethylphenyl)amide], the inhibition at 10 µM amounted to 9.23% in experiment [1] and 97.5% in experiment [2]. Besides, the activation at 10 µM in experiment [1] is -0.18%; in experiment [2] it was 0.33%.
`CCc1ccccc1NC(=O)N1CCC2(CC1)CC(c1cccc(OC)c1)=NO2` [Compound 156, 3-(3-methoxyphenyl)-1-oxa-2,8-diazaspiro[4.5]dec-2-ene-8-carboxylic acid-(2-ethylphenyl)amide]: in experiment [1], the inhibition at 10 µM is -7.89% and the activation at 10 µM amounted to 0.69%. In addition, in experiment [2], the inhibition at 10 µM came out at 48.2% and the activation at 10 µM worked out at 0.2%.
Take `O=C(/C=C/c1ccc(C(F)(F)F)nc1N1CCCCC1)N1CCC2(CC1)CC(c1ccccc1)=NO2` [Compound 355, (E)-1-(3-phenyl-1-oxa-2,8-diazaspiro[4.5]dec-2-en-8-yl)-3-(2-(piperidin-1-yl)-6-(trifluoromethyl)pyridin-3-yl)prop-2-en-1-one]: in experiment [1], the inhibition at 10 µM was found to be 63% and the activation at 10 µM turned out to be 0%. In experiment [2], the inhibition at 10 µM amounted to 98% and the activation at 10 µM was 0%.
`CC(C)(C)c1ccc(/C(=C/C(=O)N2CCC3(CC2)CC(c2cccc(F)c2)=NO3)c2ccc(Cl)c(Cl)c2)cc1` [Compound 360, (Z)-3-(4-tert-butylphenyl)-3-(3,4-dichlorophenyl)-1-(3-(3-fluorophenyl)-1-oxa-2,8-diazaspiro[4.5]dec-2-en-8-yl)prop-2-en-1-one]: the inhibition at 10 µM amounted to 12% in experiment [1] and 80% in experiment [2]. Moreover, the activation at 10 µM was 0% in experiment [1] and 3% in experiment [2].
On to `COc1cccc(C2=NOC3(CCN(C(=O)Nc4cccc(Br)c4)CC3)C2)c1` [Compound 192, 3-(3-methoxyphenyl)-1-oxa-2,8-diazaspiro[4.5]dec-2-ene-8-carboxylic acid-(3-bromophenyl)amide], for which, in experiment [1], the inhibition at 10 µM is -6.74% and the activation at 10 µM was -0.04%. Besides, in experiment [2], the inhibition at 10 µM stood at 52.1% and the activation at 10 µM was -0.07%.
For the compound `O=C(/C=C/c1ccc(C(F)(F)F)nc1N1CCCCC1)N1CCC2(CC1)CC(c1cccc(Cl)c1)=NO2` [Compound 356, (E)-1-(3-(3-chlorophenyl)-1-oxa-2,8-diazaspiro[4.5]dec-2-en-8-yl)-3-(2-(piperidin-1-yl)-6-(trifluoromethyl)pyridin-3-yl)prop-2-en-1-one], in experiment [1], the inhibition at 10 µM amounted to 52% and the activation at 10 µM worked out at 0%. Further, in experiment [2], the inhibition at 10 µM came to 88% and the activation at 10 µM stood at 0%.
Regarding `O=C(Nc1ccc(Br)cc1)N1CCC2(CC1)CC(c1ccccc1)=NO2` [Compound 197, 3-phenyl-1-oxa-2,8-diazaspiro[4.5]dec-2-ene-8-carboxylic acid-(4-bromophenyl)amide], the inhibition at 10 µM was -17.2% in experiment [1] and 59.9% in experiment [2]. The activation at 10 µM is 0.06% in experiment [1] and -0.35% in experiment [2].
As for `CC(C)(C)c1ccc(/C(=C/C(=O)N2CCC3(CC2)CC(c2ccccc2F)=NO3)c2ccc(Cl)c(Cl)c2)cc1` [Compound 359, (Z)-3-(4-tert-butylphenyl)-3-(3,4-dichlorophenyl)-1-(3-(2-fluorophenyl)-1-oxa-2,8-diazaspiro[4.5]dec-2-en-8-yl)prop-2-en-1-one], in experiment [1], the inhibition at 10 µM turned out to be 26% and the activation at 10 µM turned out to be 0%. Moreover, in experiment [2], the inhibition at 10 µM worked out at 57% and the activation at 10 µM came to 3%.
Taken in the same sequence, the figures for `O=C(Nc1ccc(I)cc1)N1CCC2(CC1)CC(c1ccccc1)=NO2` [Compound 44, 3-phenyl-1-oxa-2,8-diazaspiro[4.5]dec-2-ene-8-carboxylic acid-(4-iodophenyl)amide] were -4.4%, -0.15%, 85.6% and -0.73%.
The corresponding values for `CSc1ccc(NC(=O)N2CCC3(CC2)CC(c2ccc(C)cc2)=NO3)cc1` [Compound 69, 3-p-tolyl-1-oxa-2,8-diazaspiro[4.5]dec-2-ene-8-carboxylic acid-(4-methylsulphanylphenyl)amide] are 7.01%, -0.32%, 87.2% and -0.47%.
Consider `COc1cccc(C2=NOC3(CCN(C(=O)Nc4ccc(OC(F)(F)F)cc4)CC3)C2)c1` [Compound 244, 3-(3-methoxyphenyl)-1-oxa-2,8-diazaspiro[4.5]dec-2-ene-8-carboxylic acid-(4-trifluoromethoxyphenyl)amide], for which, in experiment [1], the inhibition at 10 µM turned out to be 3.09% and the activation at 10 µM is -0.28%. For the same compound, in experiment [2], the inhibition at 10 µM is 89.1% and the activation at 10 µM was 9.79%.
In the case of `O=C(C#Cc1ccc(C(F)(F)F)cc1)N1CCC2(CC1)CC(c1ccccc1)=NO2` [Compound 363, 1-(3-phenyl-1-oxa-2,8-diazaspiro[4.5]dec-2-en-8-yl)-3-(4-(trifluoromethyl)phenyl)prop-2-yn-1-one], in experiment [1], the inhibition at 10 µM amounted to 30% and the activation at 10 µM came to 0%. For the same compound, in experiment [2], the inhibition at 10 µM worked out at 81% and the activation at 10 µM came out at 0%.
With `COc1ccccc1NC(=O)N1CCC2(CC1)CC(c1ccc(C(C)(C)C)cc1)=NO2` [Compound 201, 3-(4-tert-butylphenyl)-1-oxa-2,8-diazaspiro[4.5]dec-2-ene-8-carboxylic acid-(2-methoxyphenyl)amide], in experiment [1], the inhibition at 10 µM was -0.7% and the activation at 10 µM was 8.56%. Besides, in experiment [2], the inhibition at 10 µM amounted to 54.2% and the activation at 10 µM is -0.43%.
Take `CC(C)(C)c1ccc(C2=NOC3(CCN(C(=O)Nc4ccc(I)cc4)CC3)C2)cc1` [Compound 45, 3-(4-tert-butylphenyl)-1-oxa-2,8-diazaspiro[4.5]dec-2-ene-8-carboxylic acid-(4-iodophenyl)amide]: in experiment [1], the inhibition at 10 µM came to 0.17% and the activation at 10 µM is -0.04%. In experiment [2], the inhibition at 10 µM turned out to be 55.5% and the activation at 10 µM was -0.73%.
For `CC(C)(C)c1ccc(NC(=O)N2CCC3(CC2)CC(c2ccc(C(F)(F)F)cc2)=NO3)cc1` [Compound 145, 3-(4-trifluoromethylphenyl)-1-oxa-2,8-diazaspiro[4.5]dec-2-ene-8-carboxylic acid-(4-tert-butylphenyl)amide], in experiment [1], the inhibition at 10 µM came to 4.26% and the activation at 10 µM amounted to 2.49%. In experiment [2], the inhibition at 10 µM was found to be 59.9% and the activation at 10 µM is -0.2%.
